Reference: ChEMBL document CHEMBL3856280, “Targeting the HSP60/10 chaperonin systems of Trypanosoma brucei as a strategy for treating African sleeping sickness” (Bioorg Med Chem Lett, 2016)

Columns and labels:
[1] = Inhibition of pig heart native MDH reporter reaction after 20 to 40 mins by fluorescence based assay; parameters: species or system Sus scrofa
[2] = Cytotoxicity against human THLE3 cells assessed as reduction in cell viability after 48 hrs by alamar blue assay; type: toxicity, cell-based
HSP60/HSP10 [3] = molecular target: T1, HSP60/HSP10 (Homo sapiens, UniProt P10809); assay: Inhibition of human mitochondrial HSP60/HSP10-ATPase activity expressed in Escherichia coli DH5alpha/BL21 (DE3) assessed as inhibition of denatured MDH refolding preincubated for 10 mins followed by ATP addition measured after 40 to 60 mins by malachite green dye based fluorescence assay
T1 sequence (P10809 whole entry): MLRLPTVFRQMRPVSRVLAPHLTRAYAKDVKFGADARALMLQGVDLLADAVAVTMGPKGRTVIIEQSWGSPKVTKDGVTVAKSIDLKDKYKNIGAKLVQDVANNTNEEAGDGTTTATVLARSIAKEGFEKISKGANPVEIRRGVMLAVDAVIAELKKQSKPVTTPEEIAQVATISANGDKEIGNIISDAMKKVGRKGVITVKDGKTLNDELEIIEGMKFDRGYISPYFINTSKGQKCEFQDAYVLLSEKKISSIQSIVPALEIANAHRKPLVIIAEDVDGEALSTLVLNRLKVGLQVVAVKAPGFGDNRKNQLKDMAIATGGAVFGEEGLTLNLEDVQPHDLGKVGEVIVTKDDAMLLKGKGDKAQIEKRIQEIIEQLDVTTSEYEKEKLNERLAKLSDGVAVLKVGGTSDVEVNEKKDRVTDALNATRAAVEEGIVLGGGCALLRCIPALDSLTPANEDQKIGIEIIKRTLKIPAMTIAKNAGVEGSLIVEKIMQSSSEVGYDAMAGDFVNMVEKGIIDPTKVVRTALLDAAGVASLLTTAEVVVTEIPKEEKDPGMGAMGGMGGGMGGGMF
T1 sequence (P61604 whole entry, further chain): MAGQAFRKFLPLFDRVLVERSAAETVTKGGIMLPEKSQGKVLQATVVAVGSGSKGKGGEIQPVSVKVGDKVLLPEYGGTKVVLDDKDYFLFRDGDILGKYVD

E. coli GroEL/ES [4] = molecular target: T2, E. coli GroEL/ES (Escherichia coli, UniProt P0A6F5); assay: Inhibition of Escherichia coli GroEL/GroES-ATPase activity expressed in Escherichia coli DH5alpha/BL21 (DE3) assessed as inhibition of denatured MDH refolding preincubated for 10 mins followed by ATP addition measured after 20 to 40 mins by malachite green dye based fluorescence assay
T2 sequence (P0A6F5 whole entry, looked up): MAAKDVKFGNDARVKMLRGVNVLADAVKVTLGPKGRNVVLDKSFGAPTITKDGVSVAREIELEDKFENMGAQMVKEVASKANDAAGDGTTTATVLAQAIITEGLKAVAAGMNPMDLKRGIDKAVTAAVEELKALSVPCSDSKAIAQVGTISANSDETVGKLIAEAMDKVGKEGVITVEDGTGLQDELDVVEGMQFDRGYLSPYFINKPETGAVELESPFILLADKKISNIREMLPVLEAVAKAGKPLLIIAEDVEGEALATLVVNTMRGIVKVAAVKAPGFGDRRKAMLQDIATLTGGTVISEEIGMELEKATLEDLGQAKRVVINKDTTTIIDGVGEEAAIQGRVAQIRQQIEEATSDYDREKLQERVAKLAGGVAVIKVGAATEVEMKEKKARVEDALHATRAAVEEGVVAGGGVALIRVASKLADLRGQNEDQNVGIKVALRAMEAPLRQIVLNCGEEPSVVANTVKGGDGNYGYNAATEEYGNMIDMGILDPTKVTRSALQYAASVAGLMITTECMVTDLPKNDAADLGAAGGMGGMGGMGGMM

[5] = Cytotoxicity against HEK293 cells assessed as reduction in cell viability after 48 hrs by alamar blue assay; type: toxicity, cell-based; details: human
[6] = test system: Trypanosoma brucei brucei; assay: Antitrypanosomal activity against Trypanosoma brucei brucei Lister 427 VSG 221 [TetR T7RNAP] transgenic bloodstream forms assessed as reduction in cell viability after 48 hrs by alamar blue assay; type: functional; details: Lister 427 VSG 221, 48 h
HSP60/HSP10 [7] = molecular target: T1, HSP60/HSP10; assay: Inhibition of human mitochondrial HSP60/HSP10 expressed in Escherichia coli DH5alpha/BL21 (DE3) assessed as inhibition of denatured MDH refolding preincubated for 10 mins followed by ATP addition measured after 40 to 60 mins by fluorescence based assay
E. coli GroEL/ES [8] = molecular target: T2, E. coli GroEL/ES; assay: Inhibition of Escherichia coli GroEL/GroES expressed in Escherichia coli DH5alpha/BL21 (DE3) assessed as inhibition of denatured MDH refolding preincubated for 10 mins followed by ATP addition measured after 20 to 40 mins by fluorescence based assay

| SMILES | IC50 [1] [µM] | EC50 at 48 h [2] [µM] | IC50 (HSP60/HSP10 [3]) [µM] | IC50 (E. coli GroEL/ES [4]) [µM] | EC50 at 48 h [5] [µM] | EC50 [6] [µM] | IC50 (HSP60/HSP10 [7]) [µM] | IC50 (E. coli GroEL/ES [8]) [µM] |
| --- | --- | --- | --- | --- | --- | --- | --- | --- |
| O=S(=O)(Nc1ccc(-c2nc3cc(NS(=O)(=O)c4cccc(C(F)(F)F)c4)ccc3o2)cc1)c1cccc(C(F)(F)F)c1 | > 63 | 19 | > 250 | 216 | 15 | 4.8 | > 100 | 15 |
| Cc1ccccc1S(=O)(=O)Nc1ccc(-c2nc3cc(NS(=O)(=O)c4ccccc4C)ccc3o2)cc1 | > 63 | 17 | > 250 | 194 | 25 | 1.8 | > 100 | > 100 |
| O=S(=O)(Nc1ccc(-c2nc3cc(NS(=O)(=O)c4ccc5nsnc5c4)ccc3o2)cc1)c1ccc2nsnc2c1 | > 63 | 45 | 127 | 1.7 | 76 | > 42 | 62 | 3.7 |
| COC(=O)c1cccc(S(=O)(=O)Nc2ccc(-c3nc4cc(NS(=O)(=O)c5cccc(C(=O)OC)c5)ccc4o3)cc2)c1 | > 63 | 49 | > 250 | > 250 | > 100 | > 42 | 95 | 11 |
| COC(=O)c1ccccc1S(=O)(=O)Nc1ccc(-c2nc3cc(NS(=O)(=O)c4ccccc4C(=O)OC)ccc3o2)cc1 | > 63 | > 100 | > 250 | 53 | > 100 | 28 | > 100 | 36 |
| O=C(O)c1cccc(S(=O)(=O)Nc2ccc(-c3nc4cc(NS(=O)(=O)c5cccc(C(=O)O)c5)ccc4o3)cc2)c1 | 41 | > 100 | > 250 | > 250 | > 100 | > 42 | 81 | 61 |
| O=S(=O)(Nc1ccc(-c2nc3cc(NS(=O)(=O)c4cccc(O)c4)ccc3o2)cc1)c1cccc(O)c1 | 47 | 37 | 61 | 0.79 | 36 | 8.9 | 19 | 0.9 |
| O=S(=O)(Nc1ccc(-c2nc3cc(NS(=O)(=O)C(F)(F)F)ccc3o2)cc1)C(F)(F)F | > 63 | > 100 | > 250 | > 250 | > 100 | > 42 | 97 | 40 |
| NCCCC(N)(C(=O)O)C(F)F (stereo not drawn) [EFLORNITHINE] | > 63 | > 100 | > 250 | > 250 | > 100 | > 42 | > 100 | > 100 |
| O=S(=O)(Nc1ccc(-c2nc3cc(NS(=O)(=O)c4cccc(Br)c4)ccc3o2)cc1)c1cccc(Br)c1 | > 63 | 21 | > 250 | 45 | 25 | 8 | > 100 | 23 |
| O=S(=O)(Cc1ccccc1)Nc1ccc(-c2nc3cc(NS(=O)(=O)Cc4ccccc4)ccc3o2)cc1 | > 63 | 29 | > 250 | 208 | 19 | 13 | > 100 | 55 |
